# Measurements as given in patent publication US10647713B2 (Nimbus Lakshmi, Inc., priority 2016, dated 2020).
# Target: human TYK2 (JH2domain-pseudokinase) (Homo sapiens (Human), UniProt P29597)
# Experiment: TYK2 JH2 Domain Binding Assay (KINOMEscan, DiscoveRx)
# Conditions: 11-point dilution, duplicate
# In short: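 Kd from duplicate 11-point 3-fold dilutions starting at 30,000 nM, fitted by Hill equation with slope fixed at −1. Compounds (final 0.9% DMSO) displace DNA-tagged HEK293-expressed TYK2 JH2 fusion (<0.1 nM) from ligand-coated beads over 1 h at room temperature; eluted kinase read by qPCR.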
# Sequence of human TYK2 (JH2domain-pseudokinase) (P29597 556-888): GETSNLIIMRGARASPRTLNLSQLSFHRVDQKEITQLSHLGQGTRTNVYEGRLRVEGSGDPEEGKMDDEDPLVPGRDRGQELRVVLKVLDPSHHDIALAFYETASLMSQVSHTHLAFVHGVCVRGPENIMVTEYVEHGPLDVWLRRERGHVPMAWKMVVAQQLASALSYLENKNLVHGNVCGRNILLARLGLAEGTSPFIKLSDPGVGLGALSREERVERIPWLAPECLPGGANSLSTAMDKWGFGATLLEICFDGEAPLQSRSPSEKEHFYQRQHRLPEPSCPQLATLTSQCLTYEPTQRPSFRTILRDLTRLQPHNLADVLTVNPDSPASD
row,SMILES,Kd
1,"Cc1cn(C)c(-c2ccc(Nc3cc(NC(=O)C4CC4)nc4[nH]c(C)nc34)c(S(C)(=O)=O)c2)n1 [I-461, N-(7-((4-(1,4-dimethyl-1H-imidazol-2-yl)-2-(methylsulfonyl)phenyl)amino)-2-methyl-3H-imidazo[4,5-b]pyridin-5-yl)cyclopropanecarboxamide]",0.1 to 0.5 nM
2,"Cc1nc2c(Nc3ccc(-c4ncc(C)n4C)cc3S(C)(=O)=O)cc(NC(=O)C3CC3)nc2[nH]1 [I-462, N-(7-((4-(1,5-dimethyl-1H-imidazol-2-yl)-2-(methylsulfonyl)phenyl)amino)-2-methyl-3H-imidazo[4,5-b]pyridin-5-yl)cyclopropanecarboxamide]",0.1 to 0.5 nM
3,"Cc1csc(-c2ccc(Nc3cc(Nc4cnc(C)c(C)n4)nc4[nH]c(C(F)F)nc34)c(S(C)(=O)=O)c2)n1 [I-463, 2-(difluoromethyl)-N5-(5,6-dimethylpyrazin-2-yl)-N7-(2-(methylsulfonyl)-4-(4-methylthiazol-2-yl)phenyl)-3H-imidazo[4,5-b]pyridine-5,7-diamine]",1 to 10 nM
4,"Cc1csc(-c2ccc(Nc3cc(Nc4cnc(C)c(C)n4)nc4[nH]c(C)nc34)c(S(C)(=O)=O)c2)n1 [I-464, N5-(5,6-dimethylpyrazin-2-yl)-2-methyl-N7-(2-(methylsulfonyl)-4-(4-methylthiazol-2-yl)phenyl)-3H-imidazo[4,5-b]pyridine-5,7-diamine]",0.5 to 1 nM
5,"Cc1nc2c(Nc3ccc(-c4nc(C)c(C)s4)cc3S(C)(=O)=O)cc(Nc3cnc(C)c(C)n3)nc2[nH]1 [I-466, N5-(5,6-dimethylpyrazin-2-yl)-N7-(4-(4,5-dimethylthiazol-2-yl)-2-(methylsulfonyl)phenyl)-2-methyl-3H-imidazo[4,5-b]pyridine-5,7-diamine]",0.5 to 1 nM
6,"Cc1cc(Nc2cc(Nc3ccc(-c4nc(C)cs4)cc3S(C)(=O)=O)c3nc(C(F)F)[nH]c3n2)nc(C)n1 [I-467, 2-(difluoromethyl)-N5-(2,6-dimethylpyrimidin-4-yl)-N7-(2-(methylsulfonyl)-4-(4-methylthiazol-2-yl)phenyl)-3H-imidazo[4,5-b]pyridine-5,7-diamine]",0.1 to 0.5 nM
7,"Cc1cc(Nc2cc(Nc3ccc(-c4nc(C)cs4)cc3S(C)(=O)=O)c3nc(C)[nH]c3n2)nc(C)n1 [I-468, N5-(2,6-dimethylpyrimidin-4-yl)-2-methyl-N7-(2-(methylsulfonyl)-4-(4-methylthiazol-2-yl)phenyl)-3H-imidazo[4,5-b]pyridine-5,7-diamine]",0.1 to 0.5 nM
8,"Cc1cc(Nc2cc(Nc3ccc(-c4nc(C)c(C)s4)cc3S(C)(=O)=O)c3nc(C(F)F)[nH]c3n2)nc(C)n1 [I-469, 2-(difluoromethyl)-N5-(2,6-dimethylpyrimidin-4-yl)-N7-(4-(4,5-dimethylthiazol-2-yl)-2-(methylsulfonyl)phenyl)-3H-imidazo[4,5-b]pyridine-5,7-diamine]",0.5 to 1 nM
9,"Cc1cc(Nc2cc(Nc3ccc(-c4nc(C)c(C)s4)cc3S(C)(=O)=O)c3nc(C)[nH]c3n2)nc(C)n1 [I-470, N5-(2,6-dimethylpyrimidin-4-yl)-N7-(4-(4,5-dimethylthiazol-2-yl)-2-(methylsulfonyl)phenyl)-2-methyl-3H-imidazo[4,5-b]pyridine-5,7-diamine]",0.1 to 0.5 nM
10,"CC1(C)COC(c2ccc(Nc3cc(NC(=O)[C@H]4C[C@H]4F)nc4[nH]c(C(F)F)nc34)c(S(C)(=O)=O)c2)=N1 [I-471, (1R,2R)—N-(2-(difluoromethyl)-7-((4-(4,4-dimethyl-4,5-dihydrooxazol-2-yl)-2-(methylsulfonyl)phenyl)amino)-3H-imidazo[4,5-b]pyridin-5-yl)-2-fluorocyclopropane-1-carboxamide]",1 to 10 nM
11,"Cc1nc2c(Nc3ccc([C@@H]4CCCO4)cc3S(C)(=O)=O)cc(NC(=O)C3CC3)nc2[nH]1 [I-472, (S)—N-(2-methyl-7-((2-(methylsulfonyl)-4-(tetrahydrofuran-2-yl)phenyl)amino)-3H-imidazo[4,5-b]pyridin-5-yl)cyclopropanecarboxamide]",0.1 to 0.5 nM
12,"Cc1nc2c(Nc3ccc([C@H]4CCCO4)cc3S(C)(=O)=O)cc(NC(=O)C3CC3)nc2[nH]1 [I-473, (R)—N-(2-methyl-7-((2-(methylsulfonyl)-4-(tetrahydrofuran-2-yl)phenyl)amino)-3H-imidazo[4,5-b]pyridin-5-yl)cyclopropanecarboxamide]",< 0.1 nM
13,"Cc1nc2c(Nc3ccc([C@H]4CCCCO4)cc3S(C)(=O)=O)cc(Nc3cnc(C)c(C)n3)nc2[nH]1 [I-474, (R)—N5-(5,6-dimethylpyrazin-2-yl)-2-methyl-N7-(2-(methylsulfonyl)-4-(tetrahydro-2H-pyran-2-yl)phenyl)-3H-imidazo[4,5-b]pyridine-5,7-diamine]",< 0.1 nM
14,"Cc1nc2c(Nc3ccc([C@@H]4CCCCO4)cc3S(C)(=O)=O)cc(Nc3cnc(C)c(C)n3)nc2[nH]1 [I-475, (S)—N5-(5,6-dimethylpyrazin-2-yl)-2-methyl-N7-(2-(methylsulfonyl)-4-(tetrahydro-2H-pyran-2-yl)phenyl)-3H-imidazo[4,5-b]pyridine-5,7-diamine]",0.1 to 0.5 nM
15,Cc1csc(-c2ccc(Nc3cc(Nc4cc5n(n4)CCOC5)nc4[nH]c(C(F)F)nc34)c(S(C)(=O)=O)c2)n1 [I-476],0.1 to 0.5 nM
16,"Cc1csc(-c2ccc(Nc3cc(Nc4cc5n(n4)CCOC5)nc4[nH]c(C)nc34)c(S(C)(=O)=O)c2)n1 [I-477, N5-(6,7-dihydro-4H-pyrazolo[5,1-c][1,4]oxazin-2-yl)-2-methyl-N7-(2-(methylsulfonyl)-4-(4-methylthiazol-2-yl)phenyl)-3H-imidazo[4,5-b]pyridine-5,7-diamine]",0.1 to 0.5 nM
17,"Cc1nc2c(Nc3ccc(-c4nn(C)cc4C)cc3S(C)(=O)=O)cc(NC(=O)[C@@H]3CC3(C)C)nc2[nH]1 [I-478, (R)—N-(7-((4-(1,4-dimethyl-1H-pyrazol-3-yl)-2-(methylsulfonyl)phenyl)amino)-2-methyl-3H-imidazo[4,5-b]pyridin-5-yl)-2,2-dimethylcyclopropane-1-carboxamide]",1 to 10 nM
18,"Cc1nc2c(Nc3ccc(-c4nc(C)sc4C)cc3S(C)(=O)=O)cc(NC(=O)C3CC3)nc2[nH]1 [I-488, N-(7-((4-(2,5-dimethylthiazol-4-yl)-2-(methylsulfonyl)phenyl)amino)-2-methyl-3H-imidazo[4,5-b]pyridin-5-yl)cyclopropanecarboxamide]",< 0.1 nM

# Next, values leading:
row,Kd,SMILES
1,1 to 10 nM,"Cc1nc2c(Nc3ccc(-c4nn(C)cc4C)cc3S(C)(=O)=O)cc(NC(=O)[C@H]3CC3(C)C)nc2[nH]1 [I-479, (S)—N-(7-((4-(1,4-dimethyl-1H-pyrazol-3-yl)-2-(methylsulfonyl)phenyl)amino)-2-methyl-3H-imidazo[4,5-b]pyridin-5-yl)-2,2-dimethylcyclopropane-1-carboxamide]"
2,0.1 to 0.5 nM,"Cc1nc(-c2ccc(Nc3cc(Nc4cc5n(n4)CCOC5)nc4[nH]c(C(F)F)nc34)c(S(C)(=O)=O)c2)sc1C [I-480, 2-(difluoromethyl)-N5-(6,7-dihydro-4H-pyrazolo[5,1-c][1,4]oxazin-2-yl)-N7-(4-(4,5-dimethylthiazol-2-yl)-2-(methylsulfonyl)phenyl)-3H-imidazo[4,5-b]pyridine-5,7-diamine]"
3,0.1 to 0.5 nM,"Cc1nc(-c2ccc(Nc3cc(NC(=O)C4CC4)nc4[nH]c(C(F)F)nc34)c(S(C)(=O)=O)c2)c(C)s1 [I-481, N-(2-(difluoromethyl)-7-((4-(2,5-dimethylthiazol-4-yl)-2-(methylsulfonyl)phenyl)amino)-3H-imidazo[4,5-b]pyridin-5-yl)cyclopropanecarboxamide]"
4,1 to 10 nM,"CC1(C)CSC(c2ccc(Nc3cc(NC(=O)[C@H]4CC4(F)F)nc4[nH]c(C(F)F)nc34)c(S(C)(=O)=O)c2)=N1 [I-482, (R)—N-(2-(difluoromethyl)-7-((4-(4,4-dimethyl-4,5-dihydrothiazol-2-yl)-2-(methylsulfonyl)phenyl)amino)-3H-imidazo[4,5-b]pyridin-5-yl)-2,2-difluorocyclopropane-1-carboxamide]"
5,> 10 nM,"CC1(C)CSC(c2ccc(Nc3cc(NC(=O)[C@@H]4CC4(F)F)nc4[nH]c(C(F)F)nc34)c(S(C)(=O)=O)c2)=N1 [I-483, (S)—N-(2-(difluoromethyl)-7-((4-(4,4-dimethyl-4,5-dihydrothiazol-2-yl)-2-(methylsulfonyl)phenyl)amino)-3H-imidazo[4,5-b]pyridin-5-yl)-2,2-difluorocyclopropane-1-carboxamide]"
6,1 to 10 nM,"Cc1nc2c(Nc3ccc(C4=NC(C)(C)CS4)cc3S(C)(=O)=O)cc(NC(=O)[C@H]3CC3(F)F)nc2[nH]1 [I-484, (R)—N-(7-((4-(4,4-dimethyl-4,5-dihydrothiazol-2-yl)-2-(methylsulfonyl)phenyl)amino)-2-methyl-3H-imidazo[4,5-b]pyridin-5-yl)-2,2-difluorocyclopropane-1-carboxamide]"
7,> 10 nM,"Cc1nc2c(Nc3ccc(C4=NC(C)(C)CS4)cc3S(C)(=O)=O)cc(NC(=O)[C@@H]3CC3(F)F)nc2[nH]1 [I-485, (S)—N-(7-((4-(4,4-dimethyl-4,5-dihydrothiazol-2-yl)-2-(methylsulfonyl)phenyl)amino)-2-methyl-3H-imidazo[4,5-b]pyridin-5-yl)-2,2-difluorocyclopropane-1-carboxamide]"
8,0.1 to 0.5 nM,"Cc1ncc(Nc2cc(Nc3ccc([C@H]4CCCCO4)cc3S(C)(=O)=O)c3nc(C(F)F)[nH]c3n2)nc1C [I-486, (R)-2-(difluoromethyl)-N5-(5,6-dimethylpyrazin-2-yl)-N7-(2-(methylsulfonyl)-4-(tetrahydro-2H-pyran-2-yl)phenyl)-3H-imidazo[4,5-b]pyridine-5,7-diamine]"
9,0.5 to 1 nM,"Cc1ncc(Nc2cc(Nc3ccc([C@@H]4CCCCO4)cc3S(C)(=O)=O)c3nc(C(F)F)[nH]c3n2)nc1C [I-487, (S)-2-(difluoromethyl)-N5-(5,6-dimethylpyrazin-2-yl)-N7-(2-(methylsulfonyl)-4-(tetrahydro-2H-pyran-2-yl)phenyl)-3H-imidazo[4,5-b]pyridine-5,7-diamine]"
10,0.1 to 0.5 nM,"CC(C)c1ccc(Nc2cc(Nc3ccccc3S(C)(=O)=O)c3nc(C(F)F)[nH]c3n2)nc1C#N [I-489, 6-((2-(difluoromethyl)-7-((2-(methylsulfonyl)phenyl)amino)-3H-imidazo[4,5-b]pyridin-5-yl)amino)-3-isopropylpicolinonitrile]"
